Reference: patent US5989846A, “Assays to identify inducers of plant defense resistance” (Rutgers, The State University of New Jersey, priority 1995, dated 1999)

How the values were obtained:
[1] = target: salicylic acid binding protein; assay: Scatchard analysis of [14C] salicylic acid binding; details: tobacco SABP; [14C] salicylic acid 2 to 70 μM
Description: Kd is defined herein as the concentration of salicylic acid needed to occupy 50% of the binding sites on the salicylic acid binding protein when the binding process reaches its equilibrium. Thus, a smaller value of Kd indicates a stronger interaction between salicylic acid and salicylic acid binding protein and vice versa. Kd is determined by measuring the amounts of salicylic acid bound to salicylic acid binding-protein at various concentrations of salicylic acid and then plotting the ratio of bound to free, salicylic acid concentrations versus bound salicylic acid concentrations to give a linear plot with a slope of -1/Kd. […]
A key element during the characterization and the purification process is a simple, inexpensive, sensitive and reliable method for determining the salicylic acid binding activity. […] (specifically radioactivity 55 Ci/mol; purchased from New England Nuclear), 150 μl of proteins binding sample was loaded onto the tube column, which was then rapidly centrifuged for 2 minutes at full speed and the solution of proteins and bound [^14 C-salicylic acid] that was excluded from the gel was collected into another tube that had been placed under the tube column during the centrifugation. […]

ascorbate peroxidase = assay: Ascorbate peroxidase activity in tobacco leaf extracts; format: biochemical, Nicotiana tabacum cv. Xanthi nc
How it was run: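 Soluble extracts from leaves of 6–8-week Nicotiana tabacum cv. Xanthi nc, desalted into 50 mM potassium phosphate pH 7 with 100 μM ascorbate, were assayed (30–50 μg protein) with or without 100 or 1000 μM SA or INA. Ascorbate oxidation followed as A290 decrease; means of three replicates.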

catalase = assay: Catalase activity of crude extracts; format: biochemical
From the text: In the presence of SA, the catalase activity of the highly purified SABP was inhibited by 80% (Table 6). A similar level of inhibition of catalase activity by SA (^- 70%) was also observed with crude extracts; inhibition appeared to be reversible since the catalase activity could be largely recovered by extensive dialysis. To assess the functional relevance of catalase inhibition by SA, several SA analogues, with or without biological activity in inducing plant PR genes and disease resistance, were compared for their ability to inhibit the catalase activity of SABP (Table 6).

horseradish peroxidase = target: T1, horseradish peroxidase (Armoracia rusticana, UniProt P00433); assay: Horseradish peroxidase activity; format: biochemical
T1 construct: purchased Sigma
T1 sequence (P00433 31-353): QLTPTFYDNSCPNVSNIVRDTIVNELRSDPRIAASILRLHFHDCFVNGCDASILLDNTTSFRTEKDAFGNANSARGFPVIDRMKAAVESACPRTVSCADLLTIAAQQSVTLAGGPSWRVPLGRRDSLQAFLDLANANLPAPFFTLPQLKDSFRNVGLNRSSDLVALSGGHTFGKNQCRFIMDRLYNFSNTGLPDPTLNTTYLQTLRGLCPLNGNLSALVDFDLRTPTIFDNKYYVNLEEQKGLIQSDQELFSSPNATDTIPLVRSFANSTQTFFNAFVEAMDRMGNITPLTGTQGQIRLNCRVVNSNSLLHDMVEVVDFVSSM
Description: Horseradish peroxidase (1 mg; obtained from Sigma) was dissolved in 1.5 ml 200 mM potassium phosphate, pH 6.2, containing 150 mM NaCl. Following a 15 minute incubation at room temperature, the enzyme solution was centrifuged (10,000 g, 10 minutes). After buffer exchange (PD-10, equilibrated with 25 mM potassium phosphate, pH 6.2), the protein concentration was adjusted to 0.5 mg/ml.
Guaiacol peroxidase activity was determined by the method of Chance and Maehly (Methods Enzymol. 2: 764 (1955)) using guaiacol as the substrate.
The formation of tetraguaiacol was monitored at 470 nm. The reaction mixture contained 0.25% guaiacol and 100 mM hydrogen peroxide in 20 mM potassium phosphate, pH 6.2. The amount of protein per 1 ml assay was […]. The reaction was measured for five minutes. The assay for horseradish peroxidase was identical, except that only 0.2-0.5 μg protein was used.

SABP = tested on: SABP; design: concentration or dose not given beside the values; details: Table 6; previously published data (Chen et al. 1993); cited from earlier work

With O=C(O)c1ccccc1O [salicylic acid, 2-hydroxybenzoic acid] as the molecule, how does the Kd [1] read?
The Kd was 14 ± 5 µM.

And the “% Inhibition of ascorbate peroxidase” value (ascorbate peroxidase; 200 μM compound, corrected for quenching of auto oxidation)?
Its value is 83 ± 9%.

What about the IC50 (ascorbate peroxidase; 750 μM ascorbate, 25 to 500 μM compound, FIG. 17, read-out: Concentration necessary for 50% inhibition (I50) of ascorbate peroxidase) of the same molecule?
The IC50 was roughly 80 µM.

And the Activity (ascorbate peroxidase; APX, 100 μM compound)?
Its Activity is 2.0 ± 0.2 μmols of oxidized substrate mi.

What about the Inhibition (ascorbate peroxidase; APX, 100 μM compound) of the same molecule?
Its Inhibition is 59%.

And the Activity (ascorbate peroxidase; APX, 1,000 μM compound)?
Its Activity is 0.24 ± 0.1 μmols of oxidized substrate mi.

What about the Inhibition (ascorbate peroxidase; APX, 1,000 μM compound) of the same molecule?
The Inhibition was 95%.

What about the “Inhibition of catalase activity” value (catalase; crude extracts) of the same molecule?
Its value is roughly 70%.

And the “Reversibility of catalase inhibition” value (catalase; extensive dialysis)?
Its value is “reversible”.

And the Activity (horseradish peroxidase; HRP, 100 μM compound)?
The Activity was 251 ± 11 μmols of oxidized substrate mi.

And the inhibition at 100 µM (horseradish peroxidase; HRP, 100 μM compound)?
Its inhibition at 100 µM is -4%.

And the Activity (horseradish peroxidase; HRP, 1,000 μM compound)?
The Activity was 237 ± 21 μmols of oxidized substrate mi.

And the inhibition at 1000 µM (horseradish peroxidase; HRP, 1,000 μM compound)?
Its inhibition at 1000 µM is 1%.

And the “Inhibition (%) [14C]SA binding” value (SABP)?
The value was 89%.
